{
  "source": "patent US20200188466A1",
  "about": "“COMPOSITIONS OF SCHISANDRA EXTRACTS AND METHODS THEREOF” (Reyoung Corporation, priority 2017, published 2020)",
  "assay": "Toxicological study: serum chemistry after celastrol with and without Schisandrin A",
  "format": "in vivo, Sprague Dawley rats",
  "conditions": "rats, 24 hours after celastrol 1.8 mg/kg oral",
  "method": "42 Male Sprague Dawley rats (weight, 210-250 g) were maintained on a 12-hour light/dark cycle with free access to water and lab chow for 10-14 h prior to the experiment. Rats were randomly divided into 7 groups (n=6 each) and groups 2-7 received 0 mg/kg, 5.5 mg/kg, and 11.0 mg/kg, 22.0 mg/kg, 44.0 mg/kg and 88.0 mg/kg of Schisandrin A in 1% CMC-Na (300-800 cps) via oral administration, respectively. After 5 minutes, all the groups received 1.8 mg/kg of celastrol in a solution of 2% DMSO-98% sterile water via oral administration.\nAt 24 hours of celastrol treatment, blood was collected from the rats in plasma kinetic study.",
  "key": {"[1]": {"conditions": "Group 1, no Schisandrin A dose stated"}, "[2]": {"conditions": "Group 2, Schisandrin A 0 mg/kg oral"}, "[3]": {"conditions": "Group 3, Schisandrin A 5.5 mg/kg oral"}, "[4]": {"conditions": "Group 4, Schisandrin A 11.0 mg/kg oral"}, "[5]": {"conditions": "Group 5, Schisandrin A 22.0 mg/kg oral"}, "[6]": {"conditions": "Group 6, Schisandrin A 44.0 mg/kg oral"}, "[7]": {"conditions": "Group 7, Schisandrin A 88.0 mg/kg oral"}},
  "data": [
    {"smiles": "CC1=C(O)C(=O)C=C2C1=CC=C1[C@@]2(C)CC[C@@]2(C)[C@@H]3C[C@](C)(C(=O)O)CC[C@]3(C)CC[C@]12C", "note": "[celastrol]", "values": [
      {"measurement": "Serum ALT", "setting": "[1]", "result": "54.5 ± 6.7", "unit": "U/L"},
      {"measurement": "Serum AST", "setting": "[1]", "result": "100.0 ± 7.0", "unit": "U/L"},
      {"measurement": "Serum creatinine", "setting": "[1]", "result": "0.48 ± 0.01", "unit": "mg/dL"},
      {"measurement": "Serum urea", "setting": "[1]", "result": "19.6 ± 2.7", "unit": "mg/dL"},
      {"measurement": "Serum ALT", "setting": "[2]", "result": "51.2 ± 3.5", "unit": "U/L"},
      {"measurement": "Serum AST", "setting": "[2]", "result": "92.0 ± 6.0", "unit": "U/L"},
      {"measurement": "Serum creatinine", "setting": "[2]", "result": "0.49 ± 0.05", "unit": "mg/dL"},
      {"measurement": "Serum urea", "setting": "[2]", "result": "20.1 ± 1.8", "unit": "mg/dL"},
      {"measurement": "Serum ALT", "setting": "[3]", "result": "54.5 ± 5.7", "unit": "U/L"},
      {"measurement": "Serum AST", "setting": "[3]", "result": "91.0 ± 4.0", "unit": "U/L"},
      {"measurement": "Serum creatinine", "setting": "[3]", "result": "0.48 ± 0.02", "unit": "mg/dL"},
      {"measurement": "Serum urea", "setting": "[3]", "result": "19.4 ± 2.5", "unit": "mg/dL"},
      {"measurement": "Serum ALT", "setting": "[4]", "result": "52.5 ± 5.8", "unit": "U/L"},
      {"measurement": "Serum AST", "setting": "[4]", "result": "91.0 ± 9.0", "unit": "U/L"},
      {"measurement": "Serum creatinine", "setting": "[4]", "result": "0.49 ± 0.02", "unit": "mg/dL"},
      {"measurement": "Serum urea", "setting": "[4]", "result": "18.3 ± 1.5", "unit": "mg/dL"},
      {"measurement": "Serum ALT", "setting": "[5]", "result": "49.3 ± 6.1", "unit": "U/L"},
      {"measurement": "Serum AST", "setting": "[5]", "result": "106.0 ± 14.0", "unit": "U/L"},
      {"measurement": "Serum creatinine", "setting": "[5]", "result": "0.50 ± 0.02", "unit": "mg/dL"},
      {"measurement": "Serum urea", "setting": "[5]", "result": "16.5 ± 1.5", "unit": "mg/dL"},
      {"measurement": "Serum ALT", "setting": "[6]", "result": "52.4 ± 8.3", "unit": "U/L"},
      {"measurement": "Serum AST", "setting": "[6]", "result": "111.0 ± 40.0", "unit": "U/L"},
      {"measurement": "Serum creatinine", "setting": "[6]", "result": "0.49 ± 0.01", "unit": "mg/dL"},
      {"measurement": "Serum urea", "setting": "[6]", "result": "17.9 ± 4.0", "unit": "mg/dL"},
      {"measurement": "Serum ALT", "setting": "[7]", "result": "53.4 ± 7.1", "unit": "U/L"},
      {"measurement": "Serum AST", "setting": "[7]", "result": "92.0 ± 9.0", "unit": "U/L"},
      {"measurement": "Serum creatinine", "setting": "[7]", "result": "0.49 ± 0.03", "unit": "mg/dL"},
      {"measurement": "Serum urea", "setting": "[7]", "result": "18.8 ± 3.4", "unit": "mg/dL"}
    ]}
  ]
}
